Test results: ChEMBL document CHEMBL1201861, “Genomics of Drug Sensitity in Cancer screening data, Wellcome Trust Sanger Institute”

Assays:
COLO-792 = assay: cells; type: functional, cell-based, Homo sapiens; settings: Homo sapiens, COLO-792
Description: SANGER: Inhibition of human COLO-792 cell growth in a cell viability assay.

COR-L105 = assay: cells; type: functional, cell-based, Homo sapiens; settings: Homo sapiens, COR-L105
Description: SANGER: Inhibition of human COR-L105 cell growth in a cell viability assay.

COR-L279 = assay: SANGER: Inhibition of human COR-L279 cell growth in a cell viability assay.; type: functional, cell-based; settings: Homo sapiens, COR-L279
Ca9-22 = assay: cells; type: functional, cell-based, Homo sapiens; settings: Homo sapiens, Ca9-22;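 further: growth inhibition of Ca9-22 cells, read out with a cell viability assay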
Description: SANGER: Inhibition of human Ca9-22 cell growth in a cell viability assay.

CaR-1 = assay: cells; type: functional, cell-based, Homo sapiens; settings: Homo sapiens, CaR-1;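 further: growth inhibition of human CaR-1 cancer cells, read out with a cell viability assay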
Description: SANGER: Inhibition of human CaR-1 cell growth in a cell viability assay.

D-542MG = assay: cells; type: functional, cell-based, Homo sapiens; settings: Homo sapiens, D-542MG
Description: SANGER: Inhibition of human D-542MG cell growth in a cell viability assay.

G-401 = assay: cells; type: functional, cell-based, Homo sapiens; settings: Homo sapiens, G-401
Description: SANGER: Inhibition of human G-401 cell growth in a cell viability assay.

GMS-10 = assay: cells; type: functional, cell-based, Homo sapiens; settings: Homo sapiens, GMS-10;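 further: growth inhibition of GMS-10 cells, read out as cell viability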
Description: SANGER: Inhibition of human GMS-10 cell growth in a cell viability assay.

H4 = assay: cells; type: functional, cell-based, Homo sapiens; settings: Homo sapiens, H4
Description: SANGER: Inhibition of human H4 cell growth in a cell viability assay.

HCC1599 = assay: cells; type: functional, cell-based, Homo sapiens; settings: Homo sapiens, HCC1599;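 further: growth inhibition of HCC1599 cells, read out in a cell viability assay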
Description: SANGER: Inhibition of human HCC1599 cell growth in a cell viability assay.

HT1197 = assay: cells; type: functional, cell-based, Homo sapiens, HT-1197; settings: Homo sapiens, HT1197
Description: SANGER: Inhibition of human HT-1197 cell growth in a cell viability assay.

HT-1376 = assay: cells; type: functional, cell-based, Homo sapiens; settings: Homo sapiens, HT-1376
Description: SANGER: Inhibition of human HT-1376 cell growth in a cell viability assay.

HuCCT-1 = assay: cells; type: functional, cell-based, Homo sapiens, HuCCT1; settings: Homo sapiens, HuCCT-1;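 further: growth inhibition of HuCCT-1 cells, read out by a cell viability assay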
Description: SANGER: Inhibition of human HuCCT1 cell growth in a cell viability assay.

JIYOYE = assay: cells; type: functional, cell-based, Homo sapiens; settings: Homo sapiens, JIYOYE
Description: SANGER: Inhibition of human JiyoyeP-2003 cell growth in a cell viability assay.

KYSE-150 cell line = assay: cells; type: functional, cell-based, Homo sapiens; settings: Homo sapiens, KYSE-150;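 further: growth inhibition of human KYSE-150 cells, read out with a cell viability assay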
Description: SANGER: Inhibition of human KYSE-150 cell growth in a cell viability assay.

KYSE-180 = assay: cells; type: functional, cell-based, Homo sapiens; settings: Homo sapiens, KYSE-180;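 further: growth inhibition of KYSE-180 cells, read out with a cell viability assay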
Description: SANGER: Inhibition of human KYSE-180 cell growth in a cell viability assay.

KYSE-510 = assay: cells; type: functional, cell-based, Homo sapiens; settings: Homo sapiens, KYSE-510;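 further: cell viability readout used to measure how strongly growth of the cell line is suppressed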
Description: SANGER: Inhibition of human KYSE-510 cell growth in a cell viability assay.

M059J = assay: cells; type: functional, cell-based, Homo sapiens; settings: Homo sapiens, M059J;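 further: growth inhibition of M059J cells, read out with a cell viability assay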
Description: SANGER: Inhibition of human M059J cell growth in a cell viability assay.

MDA-MB-415 = assay: cells; type: functional, cell-based, Homo sapiens; settings: Homo sapiens, MDA-MB-415
MONO-MAC-6 = assay: cells; type: functional, cell-based, Homo sapiens; settings: Homo sapiens, MONO-MAC-6;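 further: cell viability assay measuring growth inhibition of human MONO-MAC-6 cells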
Description: SANGER: Inhibition of human MONO-MAC-6 cell growth in a cell viability assay.

MeWo = assay: cells; type: functional, cell-based, Homo sapiens; settings: Homo sapiens, MeWo;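 further: growth inhibition of MeWo cells, determined by a cell viability readout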
Description: SANGER: Inhibition of human Mewo cell growth in a cell viability assay.

NCI-H1436 = assay: cells; type: functional, cell-based, Homo sapiens; settings: Homo sapiens, NCI-H1436;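 further: growth suppression of human NCI-H1436 cells, determined with a cell viability readout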
Description: SANGER: Inhibition of human NCI-H1436 cell growth in a cell viability assay.

NCI-H1563 = assay: cells; type: functional, cell-based, Homo sapiens; settings: Homo sapiens, NCI-H1563;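 further: growth inhibition of human NCI-H1563 cells, read out with a cell viability assay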
Description: SANGER: Inhibition of human NCI-H1563 cell growth in a cell viability assay.

NCI-H2030 = assay: cells; type: functional, cell-based, Homo sapiens; settings: Homo sapiens, NCI-H2030;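 further: growth inhibition of human NCI-H2030 cells, read out by a cell viability assay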
Description: SANGER: Inhibition of human NCI-H2030 cell growth in a cell viability assay.

NCI-H2405 = assay: cells; type: functional, cell-based, Homo sapiens; settings: Homo sapiens, NCI-H2405;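 further: growth inhibition of the human cell line, read out with a cell viability assay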
Description: SANGER: Inhibition of human NCI-H2405 cell growth in a cell viability assay.

NCI-H2452 = assay: cells; type: functional, cell-based, Homo sapiens; settings: Homo sapiens, NCI-H2452;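 further: growth inhibition of NCI-H2452 cells, read out with a cell viability assay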
Description: SANGER: Inhibition of human NCI-H2452 cell growth in a cell viability assay.

NCI-H358 = assay: cells; type: functional, cell-based, Homo sapiens; settings: Homo sapiens, NCI-H358;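 further: growth inhibition of NCI-H358 human cells, read out with a cell viability assay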
Description: SANGER: Inhibition of human NCI-H358 cell growth in a cell viability assay.

NCI-H441 = assay: cells; type: functional, cell-based, Homo sapiens; settings: Homo sapiens, NCI-H441;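 further: growth inhibition of NCI-H441 cells, read out with a cell viability assay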
Description: SANGER: Inhibition of human NCI-H441 cell growth in a cell viability assay.

NCI-H727 = assay: cells; type: functional, cell-based, Homo sapiens; settings: Homo sapiens, NCI-H727;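 further: growth inhibition of human NCI-H727 cells, read out with a cell viability assay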
Description: SANGER: Inhibition of human NCI-H727 cell growth in a cell viability assay.

OE33 = assay: cells; type: functional, cell-based, Homo sapiens; settings: Homo sapiens, OE33;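 further: growth inhibition of human OE33 cells, measured by a cell viability assay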
Description: SANGER: Inhibition of human OE33 cell growth in a cell viability assay.

OPM-2 = assay: cells; type: functional, cell-based, Homo sapiens; settings: Homo sapiens, OPM-2;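 further: growth of OPM-2 cells measured with a viability assay, IC50 for suppression of proliferation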
Description: SANGER: Inhibition of human OPM-2 cell growth in a cell viability assay.

RCM-1 = assay: cells; type: functional, cell-based, Homo sapiens; settings: Homo sapiens, RCM-1;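 further: growth inhibition of the RCM-1 line, determined with a cell viability readout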
Description: SANGER: Inhibition of human RCM-1 cell growth in a cell viability assay.

RD = assay: cells; type: functional, cell-based, Homo sapiens; settings: Homo sapiens, RD
Description: SANGER: Inhibition of human RD cell growth in a cell viability assay.

RT-112 = assay: cells; type: functional, cell-based, Homo sapiens; settings: Homo sapiens, RT-112
Description: SANGER: Inhibition of human RT-112 cell growth in a cell viability assay.

Raji = assay: cells; type: functional, cell-based, Homo sapiens; settings: Homo sapiens, Raji;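 further: cell viability assay measuring inhibition of Raji cell growth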
Description: SANGER: Inhibition of human Raji cell growth in a cell viability assay.

SCC-3 = assay: cells; type: functional, cell-based, Homo sapiens; settings: Homo sapiens, SCC-3;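 further: cell viability assay measuring inhibition of SCC-3 cell growth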
Description: SANGER: Inhibition of human SCC-3 cell growth in a cell viability assay.

SCC-4 = assay: cells; type: functional, cell-based, Homo sapiens; settings: Homo sapiens, SCC-4;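 further: growth inhibition of human SCC-4 cells, read out as cell viability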
Description: SANGER: Inhibition of human SCC-4 cell growth in a cell viability assay.

SK-MEL-30 = assay: cells; type: functional, cell-based, Homo sapiens; settings: Homo sapiens, SK-MEL-30;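 further: growth inhibition of SK-MEL-30 cells, determined with a cell viability assay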
Description: SANGER: Inhibition of human SK-MEL-30 cell growth in a cell viability assay.

SU-DHL-1 = assay: SANGER: Inhibition of human SU-DHL-1 cell growth in a cell viability assay.; type: functional, cell-based; settings: Homo sapiens, SU-DHL-1
SW837 = assay: cells; type: functional, cell-based, Homo sapiens; settings: Homo sapiens, SW837;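 further: growth inhibition of SW837 cells, determined with a cell viability assay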
Description: SANGER: Inhibition of human SW837 cell growth in a cell viability assay.

T84 = assay: cells; type: functional, cell-based, Homo sapiens; settings: Homo sapiens, T84;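 further: growth inhibition measured with a cell viability readout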
Description: SANGER: Inhibition of human T84 cell growth in a cell viability assay.

AGS = assay: cells; type: functional, cell-based, Homo sapiens; settings: Homo sapiens, AGS;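 further: growth inhibition of AGS cells, determined with a cell viability assay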
Description: SANGER: Inhibition of human AGS cell growth in a cell viability assay.

THP-1 = assay: cells; type: functional, cell-based, Homo sapiens; settings: Homo sapiens, THP-1;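 further: growth inhibition of THP-1 cells, read out via a cell viability assay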
Description: SANGER: Inhibition of human THP-1 cell growth in a cell viability assay.

U-118-MG = assay: cells; type: functional, cell-based, Homo sapiens; settings: Homo sapiens, U-118-MG
Description: SANGER: Inhibition of human U-118-MG cell growth in a cell viability assay.

UMUC3 = assay: cells; type: functional, cell-based, Homo sapiens; settings: Homo sapiens, UMUC3;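 further: growth inhibition of human UM-UC-3 cells, read out with a cell viability assay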
Description: SANGER: Inhibition of human UM-UC-3 cell growth in a cell viability assay.

WSU-NHL = assay: cells; type: functional, cell-based, Homo sapiens; settings: Homo sapiens, WSU-NHL;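 further: growth inhibition of human WSU-NHL cells, read out with a cell viability assay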
Description: SANGER: Inhibition of human WSU-NHL cell growth in a cell viability assay.

CESS = assay: SANGER: Inhibition of human CESS cell growth in a cell viability assay.; type: functional, cell-based; settings: Homo sapiens, CESS

Work on `O=C(O)c1ccc(-c2c[nH]c3ncc(-c4ccccc4)cc23)cc1C1CCCC1` [GSK-650394] yielded an IC50 (COLO-792) of over 16 µM, an IC50 (COR-L105) of over 16 µM and an IC50 (COR-L279) of over 16 µM. It also gave an IC50 (Ca9-22) of over 16 µM, an IC50 (CaR-1) of over 16 µM and an IC50 (D-542MG) of over 16 µM. It also gave an IC50 (G-401) of over 16 µM, an IC50 (GMS-10) of over 16 µM and an IC50 (H4) of over 16 µM. It also gave an IC50 (HCC1599) of over 16 µM, an IC50 (HT1197) of over 16 µM and an IC50 (HT-1376) of over 16 µM. It also gave an IC50 (HuCCT-1) of over 16 µM, an IC50 (JIYOYE) of over 16 µM and an IC50 (KYSE-150 cell line) of 10.4 µM. It also gave an IC50 (KYSE-180) of 2.06 µM, an IC50 (KYSE-510) of 2.13 µM and an IC50 (M059J) of over 16 µM. It also gave an IC50 (MDA-MB-415) of over 16 µM, an IC50 (MONO-MAC-6) of 1.18 µM and an IC50 (MeWo) of over 16 µM. It also gave an IC50 (NCI-H1436) of over 16 µM, an IC50 (NCI-H1563) of over 16 µM and an IC50 (NCI-H2030) of over 16 µM. For the same compound, the IC50 (NCI-H2405) was over 16 µM, the IC50 (NCI-H2452) was over 16 µM and the IC50 (NCI-H358) was 6.25 µM. For the same compound, the IC50 (NCI-H441) was over 16 µM, the IC50 (NCI-H727) was over 16 µM and the IC50 (OE33) was 4.97 µM. For the same compound, the IC50 (OPM-2) was over 16 µM, the IC50 (RCM-1) was over 16 µM and the IC50 (RD) was over 16 µM. For the same compound, the IC50 (RT-112) was 1.03 µM, the IC50 (Raji) was over 16 µM and the IC50 (SCC-3) was over 16 µM. For the same compound, the IC50 (SCC-4) was over 16 µM, the IC50 (SK-MEL-30) was 7.97 µM and the IC50 (SU-DHL-1) was over 16 µM. The IC50 (SW837) was over 16 µM, the IC50 (T84) was 2.6 µM and the IC50 (AGS) was 8.56 µM. It also gave an IC50 (THP-1) of over 16 µM, an IC50 (U-118-MG) of over 16 µM and an IC50 (UMUC3) of 9.58 µM. For the same compound, the IC50 (WSU-NHL) was over 16 µM and the IC50 (CESS) was over 16 µM.
With `CCN(CC)CCNC(=O)c1c(C)[nH]c(/C=C2\C(=O)Nc3ccc(F)cc32)c1C` [SUNITINIB] the IC50 (COR-L279) was over 8 µM, the IC50 (HCC1599) was over 8 µM and the IC50 (JIYOYE) was over 8 µM. It also gave an IC50 (MONO-MAC-6) of 0.0338 µM, an IC50 (NCI-H1436) of over 8 µM and an IC50 (OPM-2) of 3.06 µM. The IC50 (Raji) was over 8 µM, the IC50 (SCC-3) was 2.83 µM and the IC50 (SU-DHL-1) was 4.8 µM. It also gave an IC50 (THP-1) of over 8 µM, an IC50 (WSU-NHL) of over 8 µM and an IC50 (CESS) of 7.1 µM.
Compound `Cc1ccc(-c2c(C(=O)CCl)n(CCCO)c3ncnc(N)c23)cc1` has an IC50 (COR-L279) of over 4 µM, an IC50 (HCC1599) of 2.17 µM and an IC50 (JIYOYE) of over 4 µM. It also gave an IC50 (MONO-MAC-6) of 3.93 µM, an IC50 (NCI-H1436) of over 4 µM and an IC50 (OPM-2) of over 4 µM. It also gave an IC50 (Raji) of over 4 µM, an IC50 (SCC-3) of over 4 µM and an IC50 (SU-DHL-1) of over 4 µM. It also gave an IC50 (THP-1) of over 4 µM, an IC50 (WSU-NHL) of over 4 µM and an IC50 (CESS) of over 4 µM.
